Data from ChEMBL document CHEMBL1148223, “Isolation and phytotoxicity of apocarotenoids from Chenopodium album” (2004).
The source made the active and inactive calls. No cut-off for these calls is given here.

Tests used:
Type in all cases: functional
Lactuca sativa [1] = assay: Reduction of Lactuca sativa length development; design: scale not given: the % may be the effect or the level left
Lactuca sativa [2] = assay: Reduction of Lactuca sativa seeds germination at 100 uM daily for 5 days relative to control; details: for inhibition at 100 µM: Lactuca sativa, 120 h
Lactuca sativa [3] = assay: Reduction of Lactuca sativa shoot length at 0.1 uM relative to control; design: scale not given: the % may be the effect or the level left
Lactuca sativa [4] = assay: Reduction of Lactuca sativa root length at 0.1 uM relative to control; design: scale not given: the % may be the effect or the level left

CC(=O)/C=C/[C@@]1(O)C(C)=CC(=O)CC1(C)C
Activity (Lactuca sativa [1]): 30%

CC1=CC(=O)CC(C)(C)[C@@]1(O)/C=C/C(C)=C/CO
Activity (Lactuca sativa [2]): Active

CC(=O)C=C=C1C(C)(C)C[C@H](O)C[C@@]1(C)O
Activity (Lactuca sativa [3]): 30%
Activity (Lactuca sativa [4]): 20%

CC(=O)/C=C/[C@H]1C(C)=C[C@H](O)CC1(C)C
inhibition at 100 µM (Lactuca sativa [2]): 30%

CC(=O)/C=C/C=C(C)/C=C/[C@@]1(O)C(C)=CC(=O)CC1(C)C
Activity (Lactuca sativa [2]): 20%

CC(=O)/C=C/C=C(C)/C=C/[C@H]1C(C)=C[C@H](O)CC1(C)C
Activity (Lactuca sativa [2]): 20%

CC1=CC(=O)CC(C)(C)[C@@]1(O)/C=C/[C@@H](C)O [BLUMENOL A]
Activity (Lactuca sativa [1]): 30%

CC(=O)/C=C/[C@H]1C(C)=CC(=O)CC1(C)C
inhibition at 100 µM (Lactuca sativa [2]): 30%
